From paper PMC5813187, “Enhanced Permeability and Binding Activity of Isobutylene‐Grafted Peptides” (Chembiochem, 2017)
Where a SMILES comes first, the peptide text is derived from it.

Experiments:
[1] = PAMPA, pH 7.4
[2] = Stability test in presence of GSH; format: physicochemical; conditions: around 1 mM peptide in H2O, 1 mM GSH, 37 °C, 48 h, HPLC
Description: (§1) GSH solution (to 1 mM) or 1 μL of reconstituted human plasma (Sigma -Aldrich), and the resulting
mixture vortexed for 30 s and then shaken at 37 °C. After 48 h, an aliquot of each reaction mixture was […]

[3] = Stability test in human plasma; format: in vitro ADME; conditions: 100 μL of around 1 mM peptide in H2O with 1 μL reconstituted human plasma (Sigma-Aldrich), 37 °C, 48 h, HPLC
Description: as §1
mixture vortexed for 30 s and then shaken at 37 °C. […]
DAD1 E, Sig=280,4 Ref =360,100 (SHUANG\ISOBUT YLENE STAPLED SOMATOST AT IN_PLASMA.D)

stability in the presence of glutathione [2] | stability in the presence of glutathione ([2]; listed as Stapled Somatostatin) | stability in human plasma [3] | stability in human plasma ([3]; listed as Stapled Somatostatin) | Structure (SMILES) | Permeability [1] | −log P e [1]
– | – | – | – | CC(=O)N[C@@H](CS)C(=O)N1CCC[C@H]1C(=O)N[C@@H](CC(C)C)C(=O)N[C@@H](CC(=O)O)C(=O)N[C@@H](Cc1ccccc1)C(=O)N[C@@H](C)C(=O)N[C@@H](CS)C(N)=O [II] (Ac-CPLDFAC-NH2) | 0.76 ×10⁻⁶ cm/s | 5.12
– | – | – | – | CC(=O)N[C@@H](CS)C(=O)N1CCC[C@H]1C(=O)N[C@@H](CC(=O)O)C(=O)N[C@@H](Cc1ccccc1)C(=O)N[C@@H](CC(C)C)C(=O)N[C@@H](C)C(=O)N[C@@H](CS)C(N)=O [III] (Ac-CPDFLAC-NH2) | <0.001 ×10⁻⁶ cm/s | –
fully stable | No significant degradation | fully stable | No significant degradation | C=C1CSC[C@@H](C(=O)O)NC(=O)[C@H](CO)NC(=O)[C@H]([C@@H](C)O)NC(=O)[C@H](Cc2ccccc2)NC(=O)[C@H]([C@@H](C)O)NC(=O)[C@H](CCCCN)NC(=O)[C@H](Cc2c[nH]c3ccccc23)NC(=O)[C@H](Cc2ccccc2)NC(=O)[C@H](Cc2ccccc2)NC(=O)[C@H](CC(N)=O)NC(=O)[C@H](CCCCN)NC(=O)[C@@H](NC(=O)CNC(=O)[C@H](C)N)CSC1 [stapled somatostatin] | – | –
